Target: T1, lymphostatin (LifA; rLifA) (Escherichia coli, UniProt B7UI23)
T1 construct: gene E2348C_3234; full-length, C-terminal His6 tag kept, expressed in E. cloni (E. coli K-12) from pRham; 3229 residues as printed, 365 kDa, monomer
Experiment: intrinsic tryptophan fluorescence titration (ex […] nm, em […] nm)
Assay type: binding

**Q.** `CC(=O)N[C@H]1[C@@H](OP(=O)(O)OP(=O)(O)OC[C@H]2O[C@@H](n3ccc(=O)[nH]c3=O)[C@H](O)[C@@H]2O)O[C@H](CO)[C@@H](O)[C@@H]1O` [UDP-GlcNAc] was tested. Which Kd did it give?
**A.** 120 ± 30 µM

Source: PMC4786716, “Biophysical Characterization and Activity of Lymphostatin, a Multifunctional Virulence Factor of Attaching and Effacing Escherichia coli” (The Journal of Biological Chemistry, 2016)
